Target: T1, human HSL (Homo sapiens, UniProt Q05469)
T1 construct: generate a full length human HSL ORF with a 3′-His6 tag; made in house; host or cells: High 5 insect cells (baculovirus, pFast-BAC)
T1 sequence (Q05469 1-1076): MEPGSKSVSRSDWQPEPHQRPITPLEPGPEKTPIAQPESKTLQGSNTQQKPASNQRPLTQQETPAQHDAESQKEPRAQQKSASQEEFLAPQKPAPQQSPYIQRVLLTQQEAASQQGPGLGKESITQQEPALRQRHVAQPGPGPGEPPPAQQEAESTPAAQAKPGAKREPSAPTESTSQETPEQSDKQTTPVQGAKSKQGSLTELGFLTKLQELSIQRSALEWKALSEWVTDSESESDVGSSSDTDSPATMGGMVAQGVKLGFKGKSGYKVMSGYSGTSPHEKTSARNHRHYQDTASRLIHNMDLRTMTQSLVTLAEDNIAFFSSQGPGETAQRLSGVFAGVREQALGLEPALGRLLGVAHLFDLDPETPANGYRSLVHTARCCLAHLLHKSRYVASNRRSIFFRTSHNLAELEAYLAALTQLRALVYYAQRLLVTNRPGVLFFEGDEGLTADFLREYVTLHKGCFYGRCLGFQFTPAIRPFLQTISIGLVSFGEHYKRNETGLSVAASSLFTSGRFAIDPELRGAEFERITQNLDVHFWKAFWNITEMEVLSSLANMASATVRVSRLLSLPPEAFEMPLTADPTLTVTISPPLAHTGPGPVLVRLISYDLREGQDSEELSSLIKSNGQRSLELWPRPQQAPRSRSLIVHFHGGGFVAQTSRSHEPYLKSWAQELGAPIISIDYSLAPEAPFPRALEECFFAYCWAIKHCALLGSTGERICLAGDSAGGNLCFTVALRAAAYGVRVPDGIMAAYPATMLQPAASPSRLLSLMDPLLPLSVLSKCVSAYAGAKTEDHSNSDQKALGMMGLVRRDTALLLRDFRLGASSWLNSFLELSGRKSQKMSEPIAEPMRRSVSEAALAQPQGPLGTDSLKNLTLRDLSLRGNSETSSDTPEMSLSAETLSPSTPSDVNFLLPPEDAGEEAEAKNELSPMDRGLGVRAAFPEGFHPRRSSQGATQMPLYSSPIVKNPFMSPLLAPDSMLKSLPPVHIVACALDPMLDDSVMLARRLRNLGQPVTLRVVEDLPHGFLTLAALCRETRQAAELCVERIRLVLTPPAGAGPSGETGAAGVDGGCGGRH
Experiment: Human Hormone-Sensitive Lipase (HSL) enzyme inhibition assay (colorimetric, DMPT substrate)
Type: biochemical
Settings: human full length HSL-His6, 2,3-dimercapto-1-propanol tributyrate substrate, 37° C. 20 minutes, absorbance at 405 nm; read-out: HSL hum IC50
Method in brief: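 Full-length human HSL with C-terminal His6, expressed in baculovirus-infected High 5 cells and Ni-NTA purified, was added (15 ug/ml stock) to 1.5 mM DMPT in 100 mM MOPS pH 7.2, 0.2 mg/ml fatty acid-free BSA containing compound. After 20 min at 37 °C, DTNB with SDS/Triton X-100 was added; A405 read after 15 min at RT.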

C[C@@H](Oc1ccc(N2CC[C@]3(CC[C@@](O)(C4CC4)CC3)C2=O)cn1)C(F)(F)F [Example 179, (5α,8α)-8-Cyclopropyl-8-hydroxy-2-[6-((R)-2,2,2-trifluoro-1-methyl-ethoxy)-pyridin-3-yl]-2-aza-spiro[4.5]decan-1-one]
IC50: 30 nM

C[C@H](Oc1ccc(N2CC[C@]3(CC[C@@](O)(C4CC4)CC3)C2=O)cn1)C(F)(F)F [Example 180, (5α,8α)-8-Cyclopropyl-8-hydroxy-2-[6-((S)-2,2,2-trifluoro-1-methyl-ethoxy)-pyridin-3-yl]-2-aza-spiro[4.5]decan-1-one]
IC50: 30 nM

CC(Oc1ccc(N2CC[C@]3(CC[C@@](O)(C4CC4)CC3)C2=O)cc1)C(F)(F)F (stereo partly drawn) [Example 181, (5α,8α)-8-Cyclopropyl-8-hydroxy-2-[4-(2,2,2-trifluoro-1-methyl-ethoxy)-phenyl]-2-aza-spiro[4.5]decan-1-one]
IC50: 20 nM

C[C@@H](Oc1ccc(N2CC[C@]3(CC[C@@](O)(C4CC4)CC3)C2=O)cc1)C(F)(F)F [Example 181a, (5α,8α)-8-Cyclopropyl-8-hydroxy-2-[4-((R)-2,2,2-trifluoro-1-methyl-ethoxy)-phenyl]-2-aza-spiro[4.5]decan-1-one]
IC50: 20 nM

CCC[C@]1(O)CC[C@]2(CCN(c3ccc(OS(=O)(=O)C4CC4)cc3)C2=O)CC1 [Example 182, 4-((5α,8α)-8-hydroxy-1-oxo-8-propyl-2-aza-spiro[4.5]decan-2-yl)phenyl cyclopropanesulfonate]
IC50: 30 nM

CC[C@]1(O)CC[C@]2(CCN(c3ccc(OS(=O)(=O)C4CC4)cc3)C2=O)CC1 [Example 183, 4-((5α,8α)-8-ethyl-8-hydroxy-1-oxo-2-aza-spiro[4.5]decan-2-yl)phenyl cyclopropanesulfonate]
IC50: 70 nM

CCC[C@]1(O)CC[C@]2(CCN(c3ccc(OC(C)C)cc3)C2=O)CC1 [Example 184, (5α,8α)-8-Hydroxy-2-(4-isopropoxyphenyl)-8-propyl-2-aza-spiro[4.5]decan-1-one]
IC50: 20 nM

CCC[C@]1(O)CC[C@@]2(CCN(c3ccc(OS(C)(=O)=O)cc3)C2=O)CC1 [Example 185, 4-((5α,8β))-8-hydroxy-1-oxo-8-propyl-2-aza-spiro[4.5]decan-2-yl)phenyl methanesulfonate]
IC50: 50 nM

CC[C@]1(O)CC[C@]2(CCN(c3ccc(OC(C)C)cc3)C2=O)CC1 [Example 186, (5α,8α)-8-Ethyl-8-hydroxy-2-(4-isopropoxy-phenyl)-2-aza-spiro[4.5]decan-1-one]
IC50: 20 nM

CCC[C@]1(O)CC[C@]2(CCN(c3ccc(S(=O)(=O)CC)cc3)C2=O)CC1 [Example 187, (5α,8α)-2-(4-Ethanesulfonyl-phenyl)-8-hydroxy-8-propyl-2-aza-spiro[4.5]decan-1-one]
IC50: 650 nM

CCC[C@]1(O)CC[C@]2(CCN(Cc3ccc(OC(F)(F)F)cc3)C2=O)CC1 [Example 188, (5α,8α)-8-hydroxy-8-propyl-2-(4-(trifluoromethoxy)benzyl)-2-aza-spiro[4.5]decan-1-one]
IC50: 80 nM

O=C1N(c2ccc(OS(=O)(=O)C3CC3)cc2)CC[C@]12CC[C@@](O)(C(F)(F)F)CC2 [Example 189, 4-((5α,8α)-8-hydroxy-1-oxo-8-(trifluoromethyl)-2-aza-spiro[4.5]decan-2-yl)phenyl cyclopropanesulfonate]
IC50: 100 nM

CCCC[C@]1(O)CC[C@]2(CCN(c3ccc([C@@H](O)C(F)(F)F)cc3)C2=O)CC1 [Example 190, (5α,8α)-8-butyl-8-hydroxy-2-(4-((R)-2,2,2-trifluoro-1-hydroxyethyl)phenyl)-2-aza-spiro[4.5]decan-1-one]
IC50: 10 nM

CC(C)[C@]1(O)CC[C@]2(CCN(c3ccc(C(O)C(C)(F)F)cc3)C2=O)CC1 (stereo partly drawn) [Example 191, (5α,8α)-2-(4-(2,2-difluoro-1-hydroxypropyl)phenyl)-8-hydroxy-8-isopropyl-2-aza-spiro[4.5]decan-1-one]
IC50: 50 nM
